# Source: patent US20090169526A1, “BMP-6 ESTROGEN RESPONSIVE ELEMENT AND METHODS OF USE THEREOF” (Wyeth, priority 2004, published 2009)
# Entries after “also recorded” stand apart in the source; their conditions may differ. *1 amine or outer side, *2 acyl side, *3 side chain or, on linkers, in order; H or OH if unused. Where a SMILES comes first, the peptide text is derived from it. Bridges are numbered along the chain shown (N, C = ends). Roman numbers before positions name the chains, in order. [ ]: non-standard residue; d: D form. Actinocin(9to1) = Cc1c2oc3c(C)ccc(C(=O)[*:1])c3nc-2c(C(=O)[*:2])c(N)c1=O; NMeV = CN[C@H](C(=O)O)C(C)C; Sar = CNCC(=O)O
# Experiments:
# hBMP-6 mRNA [1] = experiment: Real-time PCR of hBMP-6 mRNA with or without Actinomycin D; type: cell-based, human; conditions: for hBMP-6 mRNA expression: treated with E2, p<0.05
# Source text: In order to determine whether estrogen regulates hBMP-6 at the level of transcription, we conducted Real-time PCR assays measuring hBMP-6 mRNA expression in cells pulse-chase treated with or without Actinomycin D, which inhibits […] (FIG. 8).
# estrogen receptors (Ers) = conditions: hMSCs with ERE-tk-luciferase construct and adeno-lacZ construct; five donors
# Method: (§1) hMSCs were infected in vitro at 80% confluence with Ad5-CMV-ERα, Ad5-CMV-ERβ and Ad5-CMV-LacZ at 100 pfu/cell, for 1 hour in serum-free DMEM after which DMEM supplemented with 10% FCS was added, as previously described (Bodine et al., 1997 and 1999). Efficiency of infection was estimated via β-gal activity determination, utilizing the Galacto-Light Chemiluminescent Reporter Assay System Kit (Tropix of PE Biosystems, USA). […] Five experiments, each in triplicate were conducted, standard error is represented.
# hBMP-6 mRNA [2] = experiment: Real Time RT-PCR of hBMP-6 mRNA in engineered hMSCs; type: cell-based, human; conditions: 10^−7 M E2, 24 hours
# Method: as §1
# ERβ [3] = target: T1, ERβ (Homo sapiens, UniProt Q92731); experiment: ERE-tk-luciferase reporter in hMSCs infected with adeno-ERβ; type: cell-based; parameters: expressed in transfected cells; host or cells: human mesenchymal stem cells (hMSCs), adenoviral transduction with Ad5-CMV-ERβ (long form; gift of Women Health Institute, Wyeth); conditions: hMSCs infected with adeno-ERE-tk-luc, adeno-ERβ and adeno-LacZ; 10^−8 M E2, 24 hours; over vehicle control
# hBMP-6 promoter = experiment: hBMP-6 promoter-Luc reporter in C3H10T1/2 cells; type: cell-based, mouse; conditions: 10^−8 M E2, 24 hours
# hBMP-6 mRNA [4] = experiment: RT-PCR of hBMP-6 mRNA in engineered hMSCs (qualitative); type: cell-based, human; conditions: E2 10^−7 M, 24 hours
# Method: H MSCs were infected with 100 pfu/cell adeno-LacZ, adeno-ER-α or adeno-ER-β.
# RNA was isolated utilizing the TRIzol Reagent (Life Technologies, USA), according to manufacturer's protocol. RT-PCR was performed as described previously (Zhou et al., 2001). Forward and reverse primers for human ERα were: 5′-[…]-3′ (SEQ ID NO:6) and 5′-[…]-3′ (SEQ ID NO:7), respectively, and were designed according to the human ERα sequence (Green et al., 1986). Forward and reverse primers for human ERβ were: 5′-[…]-3′ (SEQ ID NO:8), and 5′-[…]-3′ (SEQ ID NO:9), respectively, designed according to human ERβ sequence (Moore et al., 1998). Primers for the hBMP-6 (458 bp) (Rickard et al., 1998), and internal control RPL19 (190 bp) (Orly et al., 1994) sequences were as described previously.
# PCR conditions used for hERα and hERβ amplification were as follows: 30 cycles at 94° C. for 1 minute, 60° C. for 1 minute and 72° C. for 2 minute. Conditions used for hBMP-6 reverse transcription and PCR amplification were: incubation with RT, followed by 30 cycles of 94° C. for 1 minute, 55° C. for 1 minute and 72° C. for 2 minute in an MJ MiniCycler (MJ Research, USA). RT-PCR products of hBMP-6 were cloned into pGEM-T Easy vector (A1360, Promega), which following sequencing confirmed that the RT-PCR product was the hBMP-6 sequence.
# ERβ [5] = target: T1, ERβ; experiment: ERE-tk-Luc reporter in C3H10T1/2 cells co-transfected with ERβ; type: cell-based; parameters: expressed in transfected cells; conditions: mouse C3H10T1/2 cells co-transfected with ERβ; 10^−8 M E2, 24 hours
# T1 sequence (Q92731 whole entry): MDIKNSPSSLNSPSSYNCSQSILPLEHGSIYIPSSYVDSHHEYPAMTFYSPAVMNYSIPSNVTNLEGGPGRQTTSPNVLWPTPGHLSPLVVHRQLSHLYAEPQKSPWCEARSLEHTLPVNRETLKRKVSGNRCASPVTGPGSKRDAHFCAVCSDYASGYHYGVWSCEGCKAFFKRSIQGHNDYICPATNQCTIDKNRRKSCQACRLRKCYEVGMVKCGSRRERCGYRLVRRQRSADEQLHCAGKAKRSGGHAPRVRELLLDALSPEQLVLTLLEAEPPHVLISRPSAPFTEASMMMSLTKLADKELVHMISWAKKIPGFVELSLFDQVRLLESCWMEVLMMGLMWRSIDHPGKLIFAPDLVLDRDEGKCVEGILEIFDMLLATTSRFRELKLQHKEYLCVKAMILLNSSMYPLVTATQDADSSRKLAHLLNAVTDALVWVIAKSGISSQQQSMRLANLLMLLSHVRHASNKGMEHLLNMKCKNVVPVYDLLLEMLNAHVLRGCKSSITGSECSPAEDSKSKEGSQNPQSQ
smiles,measurement,setting,value
"Cc1c2oc3c(C)ccc(C(=O)N[C@@H]4C(=O)N[C@H](C(C)C)C(=O)N5CCC[C@H]5C(=O)N(C)CC(=O)N(C)[C@@H](C(C)C)C(=O)O[C@@H]4C)c3nc-2c(C(=O)N[C@@H]2C(=O)N[C@H](C(C)C)C(=O)N3CCC[C@H]3C(=O)N(C)CC(=O)N(C)[C@@H](C(C)C)C(=O)O[C@@H]2C)c(N)c1=O [Actinomycin D] (I: T[dV]P[Sar][NMeV] / II: T[dV]P[Sar][NMeV]; ester I:1-I:C, II:1-II:C; linker I:N-II:N via Actinocin(9to1))",effect of Actinomycin D on up-regulation of hBMP-6 mRNA by E2,"hBMP-6 mRNA [1]; hMSCs engineered with ERα or ERβ, pulse-chase treated",no statistical difference; also recorded: does not block
"C[C@]12CC[C@@H]3c4ccc(O)cc4CC[C@H]3[C@@H]1CC[C@@H]2O [E2, 17β-estradiol]",luciferase activity following E2 treatment,estrogen receptors (Ers),failed to produce luciferase activity
same,increase in hBMP-6 mRNA expression,hBMP-6 mRNA [2]; hMSCs infected with Adeno-ERα 100 pfu/cell,3.2 fold
same,increase in hBMP-6 mRNA expression,hBMP-6 mRNA [2]; hMSCs infected with Adeno-ERβ 100 pfu/cell,2.0 fold
same,stimulation of hBMP-6 mRNA expression,hBMP-6 mRNA [2]; hMSCs infected with Adeno-LacZ,not
same,increase in luciferase activity,ERβ [3],6 fold
same,hBMP-6 promoter-Luc luminescence,hBMP-6 promoter; mouse C3H10T1/2 cells co-transfected with ERα,did not result in enhanced luminescence over background levels
same,hBMP-6 promoter-Luc luminescence,hBMP-6 promoter; mouse C3H10T1/2 cells co-transfected with ERβ,did not result in enhanced luminescence over background levels
same,hBMP-6 mRNA expression,hBMP-6 mRNA [1]; cells transfected with ERα,significantly increased
same,hBMP-6 mRNA expression,hBMP-6 mRNA [1]; cells transfected with ERβ,significantly increased
same,hBMP-6 mRNA detection by RT-PCR,hBMP-6 mRNA [4]; hMSCs transduced with adeno-ERα 100 pfu/cell,qualitatively detectable levels
same,hBMP-6 mRNA detection by RT-PCR,hBMP-6 mRNA [4]; hMSCs transduced with adeno-ERβ 100 pfu/cell,qualitatively detectable levels
same,hBMP-6 mRNA detection by RT-PCR,hBMP-6 mRNA [4]; hMSCs transduced with adeno-LacZ 100 pfu/cell,did not
same,ERE-tk-Luc luminescence,ERβ [5],significant luminescence
